Assay [1] has as its system Mono Mac 6 cells on IL-1 activated HUVEC; arrest potentiated by RANTES and PF4. The assay can be described thus: Inhibition of monocyte arrest on activated endothelium under flow. As to conditions: 6 μM peptide, 60 nM RANTES and PF4, 1.5 dyn/cm2, adherent cells after 4 minutes. Type of assay: cell-based, human. As for the experimental part:
Endothelial cells from the human umbilical cord (HUVEC, human umbilical vein endothelial cells, PromoCell, Heidelberg) were cultured in endothelial cell growth medium (PromoCell, Heidelberg) and used after two to four passages.
Monocytic Mono Mac 6 cells (MM6, DSMZ) were cultured in RPMI 1640 medium (PAA Laboratories, Pasching, Austria) with the addition of 10% fetal calf serum, 2 mM L-glutamine (Biowhittaker), 1 mM sodium pyruvate, 50 μg/mL gentamycin and 9 μg/mL insulin (MM6 medium). The cells were sown with a density of 2×10^5/mL in 2 mL MM6 medium in 24-well plates and cultured at 37° C. in a humid atmosphere with 5% CO2 for 3 to 4 days before being used for experiments.
The interaction of monocytic Mono Mac 6 cells on activated endothelial cells was investigated.
Petri dishes with confluent HUVEC cells layers activated with IL-113 (Interleukin 1(3, Peprotech, 10 ng/mL, 12 hours) were placed in a flow chamber. Mono Mac 6 cells (0.5×10^6 cells/mL) were resuspended in balanced Hank solution (HBSS with 10 mM HEPES (Gibco BRL), pH 7.3, 0.5% bovine serum albumin (Serva)) and kept on ice. Five minutes before the experiment, Ca^2+ and Mg^2+ were added to the monocytic MM6 cells to yield a final concentration of 1 mM and 60 nM of the chemokines RANTES (Peprotech, Rocky Hill, N.J., USA) and PF4 (ChromaTec, Greifswald), respectively, and 6 μM of the polypeptides of the sequence SEQ ID NO: 2 according to formula (2), the sequence SEQ ID NO: 3 according to formula (3) or a control peptide of the sequence SEQ ID NO: 14 according to formula (14) and then heated up to 37° C. Cells pretreated in this way were then perfused over endothelial cells at 1.5 dyn/cm^2 on a microscope of model IX 50 from Olympus. The number of monocytes that were adherent due to the interaction with the endothelial cells was determined after 4 minutes in various fields by image analysis of photographs by a video camera (3CCD, JVC) and recorder. The data were analyzed as the mean (n=5)±standard deviation (p<0.02) in comparison with a control.

Assay [2] addresses T1, interaction of RANTES and PF4 (Homo sapiens, UniProt P02776+P13501).
T1 construct: made in house; host or cells: chemical synthesis (t-Boc solid phase peptide synthesis and native chemical ligation); no expression host
T1 sequence (P13501 24-91): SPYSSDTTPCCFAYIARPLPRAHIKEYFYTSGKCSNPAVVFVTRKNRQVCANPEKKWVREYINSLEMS
T1 sequence (P02776 32-101): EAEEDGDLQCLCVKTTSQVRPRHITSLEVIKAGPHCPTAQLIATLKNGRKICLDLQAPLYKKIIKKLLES
The assay can be described thus: Plasmon resonance (Biacore) study of inhibition of RANTES binding to immobilized biotinylated PF4. As for the experimental part:
The plasmon resonance studies were performed using HBS-EP buffer (10 mM HEPES, 150 mM NaCl, 0.005% Tween 20, pH 7.4).
Two flow cells of a Cl chip (Biacore AB, Uppsala, Sweden) were activated by injection of 50 μL ethyl(dimethylaminopropyl)carbodiimide/N-hydroxysuccinimide (0.2M/0.05M, Pierce) and then 20 μL streptavidine (0.2 mg/mL, Sigma-Aldrich) was perfused over the activated surface. The surface was next inactivated by four successive injections of 20 μL […] (1M, pH 8, Sigma-Aldrich).
Biotinylated human PF4 (bPF4) at the N-terminus was chemically synthesized by means of t-Boc-based solid phase peptide synthesis and native chemical ligation of PF4 (Dawson, P. E., Kent, S. B. (2000), Annu. Rev. Biochem. 69:923-960, Hackeng, T. M., Griffin, J. H., Dawson, P. E. (1999), Proc. Natl. Acad. Sci. USA, vol. 96, pp. 10068-10073). The bPF4 was immobilized on the dextran surface of a Cl sensor chip by injecting 200 μg/mL bPF4 into HBS-EP through one of the flow chambers and recorded 240 resonance units (RU). The second flow chamber was not treated with bPF4 and served as the reference.
Binding of RANTES (0.5 μM, recombinant human RANTES, Peprotech, Rocky Hill, N.J., USA) or RANTES (0.5 μM) that had been preincubated with various concentrations (0 μM, 10 μM and 100 μM) of the polypeptide of the sequence SEQ ID NO: 3 according to formula (3) in HBS-EP buffer overnight at room temperature to bPF4 was determined by injection of 15 μL of the respective peptide/RANTES mixture and observation of the binding for 180 seconds. The coupling was determined and the measurements were performed in a Biacore 2000 apparatus (Biacore AB) at a flow rate of 5 μL/min. Sensor grams of the RANTES binding were corrected using the BIAevaluation 3.0 software (Biacore AB) to correct for nonspecific background signals and equilibrium resonance units (RU) were determined for each injection.
In another experiment under the same conditions as those described for example 1, the binding of RANTES (0.5 μM) or RANTES (0.5 μM) that had been preincubated with 0 μM, 10 μM, 50 μM and 100 μM of the polypeptide of the sequence SEQ ID NO: 3 according to formula (3), SEQ ID NO: 2 according to formula (2) or a control peptide of the sequence SEQ ID NO: 14 according to formula (14) as given below: […]
(Surface plasmon resonance follows binding to a sensor surface in real time, without labels.)

Assay [3] deals with atherosclerotic lesions in ApoE mice. The assay can be described thus: Mouse model of atherosclerosis (ApoE mice on high-fat diet). It is filed as in vivo. As to conditions: 50 μg intraperitoneal three times a week for 12 weeks. How it is done: The model for artherosclerosis [sic; atherosclerosis] was 9- to 12-week-old female ApoE litter-mate mice (The Jackson Lab, Bar Harbor, Me., USA). The mice were fed a high-fat diet (21% fat, Altromin® C1061) for 12 weeks. During this period of time, two groups of mice received intraperitoneal injections of 50 μg of the polypeptide of the sequence SEQ ID NO: 15 according to formula (15), administered three times a week, as indicated below:
(n=7 mice) in saline solution. An untreated group of mice (n=12) was used as additional controls.
The mice were sacrificed for histological examination. […] Blood samples were taken at the beginning and end of the experimental nutrition period. The white blood cell count was determined by hemocytometry and the sera were collected, the cholesterol using the Infinity cholesterol kits (Thermo Electron, Melbourne, Australia).
The extent of the atherosclerosis was determined at the aortic route and on thoracoabdominal aorta by staining lipid deposits using Oil Red O staining (N. R. Veillard, B. Kwak, G. Pelli, F. Mulhaupt, R. W. James, A. E. Proudfoot, F. Mach, Antagonism of RANTES receptors reduces atherosclerotic plaque formation in mice. Circ. Res. 2004; 94:253-61) and quantified by means of computerized image analysis (Diskus software, Hilgers, Aachen). Areas of atherosclerotic lesions were determined in 5 μm transverse sections through the heart and aortic root. The determination was performed for each aortic root on the basis of lipid stained areas of six sections a distance of 50 μm apart. The areas of atherosclerotic lesions were divided by the total surface area of the valve of each section. The thoracoabdominal aorta was opened along the ventral midline and the areas of the lesions were stained in an en-face preparation using Oil Red-O staining. The proportional amount of lipid deposit was calculated by dividing the stained area by the total thoracoabdominal surface area.

Take CKEYFYTSGKCSNPAVVFVTRC [SEQ ID NO: 2]: the “inhibition of potentiation of monocyte arrest due to heterophilic interaction of RANTES and PF4 (in words)” value in assay [1] is listed as “weaker”.

On to “KEYFYTSGK [SEQ ID NO: 14, control peptide, reference compound]”, for which the “inhibition of the interaction of RANTES and PF4 (in words)” value in assay [2] (RANTES 0.5 μM preincubated with 100 μM peptide, Example 2) is on record as “did not exhibit any detectable inhibition”. For the same sequence, the “inhibition of potentiation of monocyte arrest due to heterophilic interaction of RANTES and PF4 (in words)” value in assay [1] is listed as “no significant inhibition”.

Regarding CKEYFYTSGKSSNPGIVFITRC [SEQ ID NO: 3], the “reduction of binding of RANTES to immobilized PF4” value in assay [2] (RANTES 0.5 μM preincubated overnight with peptide at 100 μM, Example 1) is recorded as “up to 35%”. Besides, the “inhibition of the interaction of RANTES and PF4 (in words)” value in assay [2] (RANTES 0.5 μM preincubated with 0, 10 and 100 μM peptide, Example 1) is on record as “concentration-dependent inhibition”. In addition, in assay [2] (RANTES 0.5 μM preincubated with 10 μM, 50 μM and 100 μM peptide, Example 2), the “inhibition of the interaction of RANTES and PF4 (comparison in words)” value was “definitely more effective than the polypeptide of the sequence SEQ ID NO: 2”. In addition, the “inhibition of potentiation of monocyte arrest due to heterophilic interaction of RANTES and PF4” value in assay [1] is reported as “up to 80%”.

With CKEYFYTSSKSSNLAVVFVTRC [SEQ ID NO: 15], in assay [3], the “area of the aortic root showing plaque in relation to the total valve surface area” value is on record as “significantly reduced” and the “macrophage content in the lesions” value was “significantly reduced”. The “development of atherosclerotic lesions in comparison with mice that received the control peptide” value in assay [3] (Oil Red O staining) was “significant reduction”.

The values are drawn from patent publication US8501680B2, “Antagonists against interaction of PF4 and RANTES” (RWTH Aachen, priority 2005, dated 2013).
